Reference: EP2070521A1, “Surface-modified nanoparticles” (Bayer Schering Pharma Aktiengesellschaft, priority 2007, dated 2009)

Assay: in vivo
Details: male, NMRI nu/nu, mouse, iv, 8 mg/kg

Kp at 1 h: 16.3
Kp at 2 h: 29.1
Kp at 4 h: 27.7
SMILES: C=CC[C@H]1C(=O)C(C)(C)[C@@H](O)CC(=O)O[C@H](c2ccc3sc(C)nc3c2)C[C@@H]2O[C@]2(C)CCC[C@H](C)[C@@H]1O [epothilone, (1S,3S,7S, 10R,11S,12S,16R)-7,11-dihydroxy-10-(prop-2-en-1-yl)-3-(2-methyl-benzothiazol-5-yl)-8,8,12,16-tetramethyl-4,17-dioxabicyclo[14.1.0]heptadecane-5,9-dione]
